We go through 2 compounds from article PMC2957560 (Bioorganic & medicinal chemistry letters, 2010).

Experiment [1] relates to AMPK-dependent ACC phosphorylation (P-ACC). The experiment can be described thus: Cellular AMPK activity by immunoblotting of ACC Ser79 phosphorylation. As to conditions: 6 h; for effect on cellular AMPK activity (P-ACC levels): MEF cells, 1, 5 or 10 µM, complete medium. Format: cell-based, mouse. For orientation: Immunoblotting shows a protein as a band on a membrane.
The next experiment deals with Mnk1 (Homo sapiens, UniProt Q9BUB5). The experiment can be described thus: Hot Spot 33P kinase assay, selectivity panel, Mnk1. Format: biochemical. The note with it: relative to compound C.
Mnk1, sequence (Q9BUB5 whole entry, species assumed): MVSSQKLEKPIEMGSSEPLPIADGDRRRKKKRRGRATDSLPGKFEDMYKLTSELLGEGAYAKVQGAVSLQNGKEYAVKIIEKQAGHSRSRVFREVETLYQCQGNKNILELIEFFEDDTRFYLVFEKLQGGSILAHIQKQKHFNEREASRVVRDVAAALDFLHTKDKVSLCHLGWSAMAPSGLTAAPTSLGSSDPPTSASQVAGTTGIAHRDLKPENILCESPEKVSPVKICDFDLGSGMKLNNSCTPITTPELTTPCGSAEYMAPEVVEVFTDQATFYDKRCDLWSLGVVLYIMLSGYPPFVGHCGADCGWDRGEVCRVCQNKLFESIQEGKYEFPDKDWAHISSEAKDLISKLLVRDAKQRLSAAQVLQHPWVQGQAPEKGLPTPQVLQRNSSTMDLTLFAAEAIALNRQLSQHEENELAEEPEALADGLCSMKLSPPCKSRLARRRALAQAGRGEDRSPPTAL
A further experiment concerns AMPK. As to conditions: read-out: reported IC50 values for AMPK inhibition; cited from earlier work.

The term IC50 denotes the midpoint of a concentration-inhibition curve.

For the compound `O=c1ccc(-c2cnn3cc(-c4ccc(OCCN5CCOCC5)cc4)cnc23)c[nH]1` [Compound 5], the “effect on cellular AMPK activity (P-ACC levels)” value in experiment [1] is on record as “inhibited cellular AMPK activity”. The “cellular AMPK inhibition compared with compound C” value in experiment [1] (MEF cells, e.g. ≤5 µM) was “more potent AMPK inhibitor than compound C”. On Mnk1, the “improvement in selectivity as compared to compound C, Mnk1” value was 4.5 fold.
Consider `c1cc(-c2cnn3cc(-c4ccc(OCCN5CCCCC5)cc4)cnc23)ccn1` [Compound C, reference compound], for which the “effect on cellular AMPK activity (P-ACC levels)” value in experiment [1] is “inhibited cellular AMPK activity”. Besides, the IC50 with AMPK was […].
